Tested on: zebrafish 4 days post fertilization
Assay: Zebrafish colour preference (visual perception response) test in water tank with blue and yellow passage portions
Conditions: as the alcohol concentration of the medium increased (0%, 0.5%, 1%, 2%); 10 zebrafish, 30-minute intervals, FIG. 5
Source text: 5) The image stored in each of the first to fifth image files was read at 2-minute intervals to count the number of zebrafish in the first passage portion 112 fitted with the first fitting body 120 (preferred color) or the second passage portion 113 fitted with the second fitting body 130 (dislike color).

CCO [alcohol]
visual perception response of the zebrafish (distribution between first passage portion, preferred color, and second passage portion, dislike color): scattered in both the first passage portion 112 and the second passage portion 113

— patent US20150177228A1, “DEVICE AND METHOD FOR SCREENING FOR BIOACTIVE MATERIALS USING VISUAL RECOGNITION OF ANIMALS” (GENOMIC DESIGN BIOENGINEERING COMPANY, priority 2012, published 2015)
